Results from patent publication US8741967B2, “Use of unsaturated sphingosine compounds as chemotherapeutic agents for the treatment of cancer” (Children's Hospital & Research Center at Oakland, priority 2007, dated 2014).
Entries after “also recorded” stand apart in the source; their conditions may differ. Values belong to the compound of their own block, whether it stands above or below them.

How the values were obtained:
[1] = target: T1, murine Sphingosine Kinase 1 (SK1) (Mus musculus, UniProt Q8CI15); assay: Phosphorylation by SK1 in extracts of HEK293 cells overexpressing SK1 (HPLC); format: biochemical; settings: cell extracts preincubated for 10 minutes
T1 construct: expressed in transfected cells; host or cells: HEK293
Description: The formed phosphorylated sphingoid base products were measured by HPLC.
In order to test if preincubation with C14-So or C14Δ4:6Sd has an inhibitory effect on the ability of the SK enzyme to phosphorylate the C17-So compound, cell extracts were preincubated for 10 minutes with either C14-So or C14Δ4:6Sd followed by C17-So.

HT29 cells [2] = assay: Uptake and metabolism in HT29 colon cancer cells (LC-MS); format: in vitro ADME, human; settings: for conversion to the phosphorylated compound in intact cells / uptake rate compared with long chain sphingosine / uptake rate by cells / clearance / metabolism in cells after lipid removal: HT29, 10 μM; for conversion to the phosphorylated compound in intact cells: LC-MS; for uptake rate compared with long chain sphingosine: not shown; for uptake rate by cells: serum-free media; for clearance / metabolism in cells after lipid removal: then incubated without lipids for up to 6 hours
Description: In this example, the uptake and metabolism of C14 sphingadienes was compared with that of synthetic C17 sphingosine (as a substitute for endogenous C18 sphingosine which is already present in cells) and C14 sphingosine (to assess the importance of the second double bond) by HT29 colon cancer cells. Toward that end, cells were incubated with 10 μM sphingadiene in serum-free media, followed by cell harvest at various time points, lipid extraction and analysis by mass spectrometry of SD, SD-phosphate, C14 sphingosine and corresponding S1Ps.
HT29 cells were incubated for 0.25 hours, 0.5 hours and 1 hour in media containing 10 μM C14-So (Δ4) (sphingosine) or C14Δ4:6Sd (see FIG. 9A). HT29 cells were incubated for 1 hour in media containing 10 μM C14-So or C14Δ4:6Sd. Media was then removed and cells were incubated without lipids for 1, 3 and 6 hours (FIG. 9B). At each time point, cells were harvested, lipids were extracted and the cellular contents of C14-So or C14Δ4:6Sd and the corresponding phosphorylated compounds were analyzed by LC-MS.

[3] = target: T2, human Sphingosine-1-Phosphate Lyase (SPL) (Homo sapiens, UniProt O95470); assay: Cleavage by SPL in HEK 293 cells overexpressing SPL; format: biochemical
T2 construct: expressed in transfected cells; host or cells: HEK 293
T2 sequence (O95470 1-568): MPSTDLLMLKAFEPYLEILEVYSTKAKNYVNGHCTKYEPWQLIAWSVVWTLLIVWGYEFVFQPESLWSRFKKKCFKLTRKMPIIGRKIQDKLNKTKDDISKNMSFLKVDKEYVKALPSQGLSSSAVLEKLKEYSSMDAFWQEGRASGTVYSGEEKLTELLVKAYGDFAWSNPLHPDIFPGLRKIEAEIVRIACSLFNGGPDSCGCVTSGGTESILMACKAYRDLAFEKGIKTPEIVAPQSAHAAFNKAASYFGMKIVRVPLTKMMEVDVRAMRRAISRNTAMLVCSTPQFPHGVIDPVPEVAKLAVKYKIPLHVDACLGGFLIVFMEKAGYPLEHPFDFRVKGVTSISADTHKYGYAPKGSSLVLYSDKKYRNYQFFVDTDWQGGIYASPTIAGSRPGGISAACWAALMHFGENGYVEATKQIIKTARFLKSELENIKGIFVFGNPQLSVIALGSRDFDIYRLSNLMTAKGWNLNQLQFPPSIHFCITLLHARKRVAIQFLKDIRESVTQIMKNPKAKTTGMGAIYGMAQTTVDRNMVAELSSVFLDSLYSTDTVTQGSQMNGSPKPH

protein synthesis = assay: Translational activity of HT29 cell cytosol (DUAL-LUCIFERASE Reporter Assay System); format: cell-based, human; settings: HT29, 10 μM, 6 hours
Description: (§1) HT29 cells were incubated for 6 hours with 10 μM C14Δ4:6Sd and the translational activity of the cell cytosol was measured with the DUAL-LUCIFERASE® Reporter Assay System (Promega, Madison, Wis.). […] In another experiment, HT29 cells were pretreated with inhibitors of p38 (SB20350), MEK (PD98059), PI3K (LY294002) and JNK (JNK inhibitor 2) and caspase 3 activity was determined following an 18 hour incubation with 10 μM C14Δ4:6Sd.

4EBP [4] = assay: 4EBP phosphorylation by western blotting in HT29 cells; format: cell-based, human; settings: HT29, 10 μM, 0.5 to 24 hours
Description: (§2) To address the possibility that sphingadienes might promote cell death by inhibiting the PI3K/AKT pathway, the effect of sphingadienes on phosphorylation of AKT, PTEN, and the AKT substrate 4EBP, which is a regulator of protein translation, was evaluated using immunoblotting of whole cell extracts.
(§3) HT29 cells were incubated with 10 μM C14Δ4:6Sd for 0.5, 1, 3, 6 and 24 hours and the level of Akt and 4EBP phosphorylation was evaluated at each time point by western blotting. […] The ratios of phosphorylated Akt to total Akt and of phosphorylated 4EBP to total 4EBP, were quantified by densitometry using ImageJ software (ImageJ is a public domain Java image processing program inspired by NIH Image; available at rsbweb.nih.gov/ij/index.html) and are shown in FIG. 7A and FIG. 7B, respectively.
(§4) In an additional experiment, HT29 cells were treated for various time periods with 10 μM C14Δ4:6Sd or C18Δ4:8Sd and the level of phosphorylation of Akt and 4EBP was evaluated by western blotting at 0.5, 1.0 and 3.0 hours. The results confirmed that sphingadienes inhibited phosphorylation of Akt and 4EBP, even at 0.5 hours of exposure, thus inhibiting signaling through Akt and 4EBP.

ApcMin/+ mice = assay: Intestinal polyps in ApcMin/+ mice; format: in vivo; settings: gavage 2.5 mg/day, day 10, versus vehicle control
Description: (§5) Murine experiments were performed to investigate the in vivo effect of C14Δ4:6Sd on the development of polyps in intestinal tissue using an established animal model system having an inherited genetic defect underlying spontaneous multiple intestinal neoplasia (Min) (Polakis, 1997 Biochim Biophys. Acta. 1332:F127; Kucherlapati et al., 2001 Semin. Canc. Biol. 11:219; Sansom et al., 2004 Genes Dev. 18:1385). Ten 12 week-old male ApcMin/+ mice (available from Jackson Laboratory, Bar Harbor, Me.) were administered by gavage 2.5 mg/day C14Δ4:6Sd and ten mice received vehicle control. Mice were euthanized by CO2 asphyxiation and intestinal tissues harvested at day 10. Gross polyps were counted and measured (diameter). […] Polyps were further analyzed for phosphorylated 4EBP by western blotting and it was confirmed that sphingadienes inhibited 4EBP phosphorylation in vivo.

HCT116 cells = assay: Viability of HCT116 colon cancer cells; format: cell-based; settings: Homo sapiens, HCT-116; HCT116, 10 μM, 24 hours; read-out: viability, % of controls
Description: (§6) The human colon cancer cell lines, HT29, SW480, HCT116 and DLD1 were treated with 10 μM C14Δ4:6Sd (also referred to herein as 2-aminotetradeca-4,6-diene-1,3-diol) and viability was determined at 24 hours.

SW480 cells [5] = assay: Viability of SW480 colon cancer cells; format: cell-based; settings: Homo sapiens; SW480, 10 μM, 24 hours; read-out: viability, % of controls
Description: as §6

Akt = Akt phosphorylation by western blotting in HT29 cells; format: cell-based, human; settings: HT29, 10 μM, 0.5 to 24 hours
Description: as §2, §3, §4

4EBP [6] = assay: 4EBP phosphorylation by western blotting in SW480 cells; format: cell-based, human; settings: SW480, 10 μM, up to 5 hours
HT29 cells [7] = assay: Viability of HT29 colon cancer cells; format: cell-based, human
Description: as §6
HT29 cells were then incubated with various sphingadiene compounds and viability was determined at 24 hours.
HT29 cells were incubated with various concentrations of C14Δ4:6Sd and viability was determined at 24 hours or incubated with 10 μM C14Δ4:6Sd and viability was determined at various time points.
In a further experiment, HT29 cells were treated with the PI3K inhibitor wortmannin and various concentrations of C14Δ4:6Sd and viability was determined at 24 hours by MTT assay. The results confirmed synergistic inhibition of […] by C14Δ4:6Sd and wortmannin (see FIG. 8C).

4EBP [8] = assay: Phosphorylated 4EBP in polyps of ApcMin/+ mice by western blotting; format: in vivo; settings: gavage 2.5 mg/day, day 10
Description: as §5

SK = assay: Competition studies with sphingosine and SD on sphingosine kinase; settings: not shown, listed as C14 SD
LC3 = LC3 activation (LC3-1 to LC3-2 shift) by western blotting in SW480 cells transfected with myr-Akt; format: cell-based, human; settings: various concentrations
Description: (§7) Autophagy is a cell process used to degrade components of the cytoplasm and functions as a cell survival mechanism during nutrient deprivation (P. Codogno and A J Meijer, Cell Death Differ. 2005 November; 12 Suppl 2:1509-18). […] In order to further investigate this phenomenon, LC3 (microtubule associated protein 1 light chain 3) was used as a marker for this process.
(§8) In one experiment, SW480 cells were transfected with a GFP-LC3 construct and treated for 4 h with 5 μM C14Δ4:6Sd. […] In another experiment, SW480 cells transfected with myr-Akt were treated with various concentrations of C14Δ4:6Sd and the amount of LC3 activation (shift from LC3-1 to LC3-2) was verified by western blotting.

HT29 cells [9] = assay: Caspase-3 activity assay (apoptosis) in HT29 colon cancer cells; format: cell-based, human
Description: To assess the effect of C14 sphingadienes on colon cancer cell viability, HT29, DLD1 and SW480 colon cancer cells (available from American Type Culture Collection (ATCC), Manassas, Va.) were propagated in DME-H21 plus 10% serum until ⅔ confluent. Media was then replaced with serum-free media containing 10 μM sphingadienes (SD). After 24 hours, cells were harvested, and whole cell extracts were prepared for caspase-3 activity assays. Caspase-3 activity was determined using substrate Ac-DEVD-pNA (Biomol, Plymouth Meeting, Pa.) as described (Oskouian, B., et al., Proc Natl Acad Sci USA 103: 17384-17389, 2006).
In an additional experiment, HT29 cells were treated with 10 μM sphingoid bases or ceramides and caspase-3 activity was determined at 24 hours.
HT29 cells transfected with constitutively active myristoylated Akt (myr-Akt) were treated with 10 μM C14Δ4:6Sd and caspase 3 activity was determined at 24 hours.
as §1

SW480 cells [10] = assay: Autophagy: GFP-LC3 fluorescence microscopy in SW480 cells; format: cell-based, human; settings: SW480 transfected with GFP-LC3, 5 μM, 4 h
Description: as §7, §8

DLD1 cells = assay: Viability of DLD1 colon cancer cells; format: cell-based; settings: Homo sapiens, DLD-1; DLD1, 10 μM, 24 hours; read-out: viability, % of controls
Description: as §6

[11] = HT29, various concentrations, 24 hours
[12] = HT29 pretreated with inhibitor, 18 hour incubation with 10 μM

T1 sequence (Q8CI15 whole entry): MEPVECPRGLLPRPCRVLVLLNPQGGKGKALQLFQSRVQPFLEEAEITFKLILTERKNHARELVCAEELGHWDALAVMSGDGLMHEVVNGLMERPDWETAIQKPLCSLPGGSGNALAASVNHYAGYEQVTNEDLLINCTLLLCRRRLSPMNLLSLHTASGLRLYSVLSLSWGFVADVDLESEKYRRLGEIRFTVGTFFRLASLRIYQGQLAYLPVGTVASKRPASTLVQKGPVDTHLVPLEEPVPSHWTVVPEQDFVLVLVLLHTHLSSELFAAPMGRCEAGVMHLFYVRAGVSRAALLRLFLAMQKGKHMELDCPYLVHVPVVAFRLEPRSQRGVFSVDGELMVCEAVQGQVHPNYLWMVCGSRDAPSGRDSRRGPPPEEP

inhibitory effect on phosphorylation of C17-So by SK [1]: no inhibitory effect was observed
conversion to the phosphorylated compound in intact cells (HT29 cells [2]): efficiently phosphorylated
uptake rate compared with long chain sphingosine (HT29 cells [2]): faster
uptake rate by cells (HT29 cells [2]): taken up at equal rates
clearance / metabolism in cells after lipid removal (HT29 cells [2]): completely metabolized
SMILES: CCCCCCCCCCCCC/C=C/[C@@H](O)[C@@H](N)CO [C14-So, reference compound]
clearance / metabolism in cells after lipid removal (HT29 cells [2]; listed as C14 sphingosine): cleared from the cells in hours; also recorded: rapidly metabolized

SMILES: CCCCCCCCCC=CC(O)C(N)COP(=O)(O)O (centres unmarked) [C14So-1P]
processing of C17So-1P following preincubation [3]: No significant difference

inhibitory effect on phosphorylation of C17-So by SK [1]: no inhibitory effect was observed
conversion to the phosphorylated compound in intact cells (HT29 cells [2]; listed as C14 SDs): not converted to SD-phosphates
uptake rate compared with long chain sphingosine (HT29 cells [2]): faster
uptake rate by cells (HT29 cells [2]): taken up at equal rates
clearance / metabolism in cells after lipid removal (HT29 cells [2]): remains unaltered
clearance / metabolism in cells after lipid removal (HT29 cells [2]; listed as C14 SDs): remained in the cells for many hours
time remaining in cells after lipid removal (HT29 cells [2]; HT29, FIG. 3): 6 h
inhibition of SK (SK): inhibit SK
SMILES: CCCCCCC/C=C/C=C/C(O)C(N)CO (centres unmarked) [C14Δ4:6Sd, 2-aminotetradeca-4,6-diene-1,3-diol]
Luciferase activity (translational activity, protein synthesis) (protein synthesis): reduced by more than half
phosphorylation of 4EBP (4EBP [4]): inhibited
size (diameter) of intestinal polyps (ApcMin/+ mice): reduced the size
number of intestinal polyps (ApcMin/+ mice; p<0.0027): significantly reduced
viability at 10 µM (HCT116 cells): > 50%
viability at 10 µM (SW480 cells [5]): < 50%
phosphorylation of Akt (Akt): inhibited
phosphorylation of 4EBP (4EBP [6]): reduced phosphorylation
dose and time dependence of cytotoxicity (HT29 cells [7]; HT29, various concentrations at 24 hours or 10 μM at various time points): dose- and time-dependent
cytotoxicity (viability) (HT29 cells [7]; [11]): cytotoxic
viability in combination with PI3K inhibitor wortmannin (HT29 cells [7]; HT29, various concentrations, 24 hours, MTT assay): synergistic
viability at 10 µM (HT29 cells [7]; Homo sapiens, HT-29, HT29, 10 μM, 24 hours, read-out: viability, % of controls): < 50%
4EBP phosphorylation in polyps in vivo (4EBP [8]): inhibited
LC3 activation (shift from LC3-1 to LC3-2) (LC3): autophagic activity
caspase 3 activity in combination with JNK inhibitor (JNK inhibitor 2) (HT29 cells [9]; [12]): not synergistic
caspase 3 activity in combination with MEK inhibitor (PD98059) (HT29 cells [9]; [12]): not synergistic
caspase 3 activity in combination with PI3K inhibitor LY294002 (HT29 cells [9]; [12]): synergistic
caspase 3 activity in combination with p38 inhibitor (SB20350) (HT29 cells [9]; [12]): not synergistic
caspase 3 activity / cell death in HT29 cells transfected with myr-Akt (HT29 cells [9]; constitutively active myristoylated Akt, 10 μM, 24 hours): protected against sphingadiene-induced cell death
autophagosome formation (GFP-LC3) (SW480 cells [10]): autophagosome formation
viability at 10 µM (DLD1 cells): < 50%

SMILES: CCCCCC=CCCC=CC(O)C(N)CO (centres unmarked) [C14Δ4:8Sd]
cytotoxicity (viability) (HT29 cells [7]; [11]): cytotoxic

SMILES: CCCCCCCCCCC/C=C/C=C/C(O)C(N)CO (centres unmarked) [C18Δ4:6Sd]
cytotoxicity (viability) (HT29 cells [7]; [11]): cytotoxic

SMILES: CCCCCCCCC/C=C/CC/C=C/C(O)C(N)CO (centres unmarked) [C18Δ4:8Sd]
phosphorylation of 4EBP (4EBP [4]): inhibited
phosphorylation of Akt (Akt): inhibited
cytotoxicity (viability) (HT29 cells [7]; [11]): cytotoxic
